Laboratory results as given in patent US7094909B2, “HIV protease inhibitors, compositions containing the same, their pharmaceutical uses and materials for their synthesis” (priority 2001, dated 2006).
Like-named read-outs stand apart in the source and are kept apart here.

Columns and labels:
[1] = tested on: HIV-1 (HIV-1 RF, HIV-1 NL4-3) in CEM-SS / MT-2 cells; test: Cytopathic effect (CPE) inhibition assay (XTT/MTT dye reduction); assay type: cell-based
Method in brief: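 CEM-SS or MT-2 cells were infected with HIV-1 RF or NL4-3 (moi 0.025–0.819) and plated at 2×10^4 cells/well with half-log compound dilutions for 6 days. Viability was read by XTT formazan at 450 nm after 4 h. EC50 restores formazan to 50% of uninfected untreated cells, CC50 halves it in uninfected cells, and TI = CC50/EC50.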

[2] = target: T1, HIV-1 protease (Q7S mutant form) (Human immunodeficiency virus type 1 group M subtype B, UniProt P04585, Q495S); test: HIV-1 Protease RET assay; assay type: biochemical
T1 construct: made in house
Method in brief: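 Q7S HIV-1 protease, refolded from urea, 2 nM active dimer with 5 μM EDANS/DABCYL peptide cleaved at Tyr-Pro; fluorescence 340/490 nm. 12 min at 37 °C in 0.1M sodium acetate pH 4.8, 1M NaCl, 10% DMSO. Ki from Morrison tight-binding fit.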

[3] = Human immunodeficiency virus 1, NL43, read-out: Ave CPE EC50
[4] = Ave. Ki (nM), RET assay, Q7S enzyme, Morrison tight binding fit
[5] = Human immunodeficiency virus 1, NL43, unit inferred, read-out: EC50

Row | Compound | EC50 [1, 3] | Ki [2, 4] | EC50 [1, 5] | Ki ([2]; Ki, unit inferred)
1 | CC1(C)SCN(C(=O)[C@@H](O)[C@H](Cc2ccccc2)NC(=O)O[C@H]2CCOC2)[C@@H]1C(=O)NCC1CC1 [Example B26, {(1S,2S)-1-Benzyl-3-[(R)-4-(cyclopropylmethyl-carbamoyl)-5,5-dimethyl-thiazolidin-3-yl]-2-hydroxy-3-oxo-propyl}-carbamic acid (S)-(tetrahydro-furan-3-yl) ester] | 348 nM | 2.1 nM | – | –
2 | CCCCOC(=O)N[C@@H](Cc1ccccc1)[C@H](O)C(=O)N1CSC(C)(C)C1C(=O)NCc1ccccc1C (some centres unmarked) | – | – | 1760 nM | 7.6 nM
3 | Cc1ccccc1CCC(=O)[C@H]1N(C(=O)[C@@H](O)[C@H](Cc2ccccc2)NC(=O)O[C@H]2CCOC2)CSC1(C)C | – | – | 573 nM | 0.76 nM
4 | Cc1c(O)cccc1C(=O)N[C@@H](Cc1ccccc1)[C@H](O)C(=O)N1CSC(C)(C)[C@H]1C(=O)NN(C)c1ccccc1 [Example A57, N-{(1S,2S)-1-Benzyl-3-[(R)-5,5-dimethyl-4-(N′-methyl-N′-phenyl-hydrazinocarbonyl)-thiazolidin-3-yl]-2-hydroxy-3-oxo-propyl}-3-hydroxy-2-methyl-benzamide] | 1530 nM | 5.6 nM | – | –
5 | C#CCOC(=O)N[C@@H](Cc1ccccc1)[C@H](O)C(=O)N1CSC(C)(C)[C@H]1C(=O)NCc1ccccc1C [Example B10, {(1S,2S)-1-Benzyl-3-[(R)-5,5-dimethyl-4-(2-methyl-benzylcarbamoyl)-thiazolidin-3-yl]-2-hydroxy-3-oxo-propyl}-carbamic acid prop-2-ynyl ester] | 386 nM | 0.57 nM | – | –
6 | Cc1c(O)cccc1C(=O)N[C@@H](Cc1ccccc1)[C@H](O)C(=O)N1CC(F)(F)C[C@H]1C(=O)N[C@H]1CCCc2ccccc21 [Example C3, (S)-4,4-Difluoro-1-((2S,3S)-2-hydroxy-3-{[1-(3-hydroxy-2-methyl-phenyl)-methanoyl]-amino}-4-phenyl-butanoyl)-pyrrolidine-2-carboxylic acid (1,2,3,4-tetrahydro-naphthalen-1-yl)-amide] | 486 nM | 0.16 nM | – | –
7 | CCN1CCc2c(C(=O)N[C@@H](Cc3ccccc3)[C@H](O)C(=O)N3CSC(C)(C)[C@H]3C(=O)NCc3ccccc3C)cccc21 | – | – | 1010 nM | 6.7 nM
8 | Cc1c(O)cccc1C(=O)N[C@@H](Cc1ccccc1)[C@H](O)C(=O)N1CSC(C)(C)[C@H]1C(=O)NCC1CCOC1 (stereo partly drawn) [Example A46, (R)-3-((2S,3S)-2-Hydroxy-3-{[1-(3-hydroxy-2-methyl-phenyl)-methanoyl]-amino}-4-phenyl-butanoyl)-5,5-dimethyl-thiazolidine-4-carboxylic acid (tetrahydro-furan-3-ylmethyl)-amide] | 469 nM | 1.1 nM | – | –
9 | Cc1ccccc1CNC(=O)[C@H]1N(C(=O)[C@@H](O)[C@H](Cc2ccccc2)NC(=O)CCCO)CSC1(C)C [Example B85] | 363 nM | 1.3 nM | – | –
10 | CC1(C)SCN(C(=O)[C@@H](O)[C@H](Cc2ccccc2)NC(=O)c2cccc3c2CCN3)[C@@H]1C(=O)NCC1CC1 [Example B28, 2,3-Dihydro-1H-indole-4-carboxylic acid {(1S,2S)-1-benzyl-3-[(R)-4-(cyclopropylmethyl-carbamoyl)-5,5-dimethyl-thiazoldin-3-yl]-2-hydroxy-3-oxo-propyl}-amide] | 731 nM | 4.2 nM | – | –
11 | Cc1ccccc1CNC(=O)[C@H]1N(C(=O)[C@@H](O)[C@H](Cc2ccccc2)NC(=O)[C@@H](NC(=O)COc2cccc(N(C)C)c2)C(C)C)CSC1(C)C | – | – | 14 nM | ≤ 0.1 nM
12 | C#CCOC(=O)N[C@@H](Cc1ccccc1)[C@H](O)C(=O)N1CSC(C)(C)[C@H]1C(=O)NCc1ccccc1C(F)(F)F [Example B54, {1-Benzyl-3-[5,5-dimethyl-4-(2-trifluoromethyl-benzylcarbamoyl)-thiazolidin-3-yl]-2-hydroxy-3-oxo-propyl}-carbamic acid prop-2-ynyl ester] | 1660 nM | 2.3 nM | – | –
13 | Cc1c(O)cccc1C(=O)N[C@@H](Cc1ccccc1)[C@H](O)C(=O)N1CSC(C)(C)[C@H]1C(=O)NC1CCCC1 [Example A27, (R)-3-((2S,3S)-2-Hydroxy-3-{[1-(3-hydroxy-2-methyl-phenyl)-methanoyl]-amino}-4-phenyl-butanoyl)-5,5-dimethyl-thiazolidine-4-carboxylic acid cyclopentylamide] | 110 nM | < 0.1 nM | – | –
14 | C#CCOC(=O)N[C@@H](Cc1ccccc1)[C@H](O)C(=O)N1CSC(C)(C)[C@H]1C(=O)NCCC | – | – | 1350 nM | 4.8 nM
15 | Cc1c(O)cccc1C(=O)N[C@@H](Cc1ccccc1)[C@H](O)C(=O)N1CSC(C)(C)[C@H]1C(=O)N[C@@H]1CCc2ncccc21 [Example A52, 3-[2-Hydroxy-3-(3-hydroxy-2-methyl-benzoylamine)-4-phenyl-butyryl]-5,5-dimethyl-thiazolidine-4-carboxylic acid (6,7-dihydro-5H-[1]pyrindin-5-yl)-amide] | 456 nM | 0.51 nM | – | –
16 | Cc1c(O)cccc1C(=O)N[C@@H](Cc1ccccc1)[C@H](O)C(=O)N1CSC(C)(C)[C@H]1C(=O)NCc1ccccn1 [Example A3, (R)-3-((2S,3S)-2-Hydroxy-3-{[1-(3-hydroxy-2-methyl-phenyl)-methanoyl]-amino}-4phenyl-butanoyl)-5,5-dimethyl-thiazolidine-4-carboxylic acid (pyridin-2-ylmethyl)-amide] | 156 nM | 0.51 nM | – | –
17 | Cc1ccc(C(=O)N[C@@H](Cc2ccccc2)[C@H](O)C(=O)N2CSC(C)(C)[C@H]2C(=O)N[C@H]2CCc3ccccc32)c(C)c1O [Example B43, (R)-3-((2S,3S)-2-Hydroxy-3-{[1-(3-hydroxy-2,4-dimethyl-phenyl)-methanoyl]-amino}-4-phenyl-butanoyl)-5,5-dimethyl-thiazolidine-4-carboxylic acid (S)-indan-1-ylamide] | 375 nM | < 0.1 nM | – | –
18 | COc1ccc(CNC(=O)[C@@H]2CC(F)(F)CN2C(=O)[C@@H](O)[C@H](Cc2ccccc2)NC(=O)c2cccc(O)c2C)cc1 [Example C13, (S)-4,4-Difluoro-1-[(2S,3S)-2-hydroxy-3-(3-hydroxy-2-methyl-benzoylamino)-4-phenyl-butyryl]-pyrrolidine-2-carboxylic acid 4-methoxy-benzylamide] | 1180 nM | 0.59 nM | – | –
19 | Cc1ccccc1CNC(=O)[C@H]1N(C(=O)[C@@H](O)[C@H](Cc2ccccc2)NC(=O)C2CC2)CSC1(C)C [Example B15, 3-[(S)-3-(Cyclopropanecarbonyl-amino)-2-hydroxy-4-phenyl-butyryl]-5,5-dimethyl-thiazolidine-4-carboxylic acid 2-methyl-benzylamide] | 2300 nM | 1.3 nM | – | –
20 | Cc1cc(O)c(C)c(C(=O)N[C@@H](Cc2ccccc2)[C@H](O)C(=O)N2CC(F)(F)C(C)(C)[C@H]2C(=O)NCC(C)C)c1 [Example D5, (S)-4,4-Difluoro-1-[(2S,3S)-2-hydroxy-3-(3-hydroxy-2,5-dimethyl-benzoylamino)-4-phenyl-butyryl]-3,3-dimethyl-pyrrolidine-2-carboxylic acid isobutyl-amide] | 11 nM | < 0.1 nM | – | –
21 | Cc1c(O)cccc1C(=O)N[C@@H](Cc1ccccc1)[C@H](O)C(=O)N1CC(F)(F)C[C@H]1C(=O)NCc1ccccc1Cl [Example C10, 4,4-Difluoro-1-[2-hydroxy-3-(3-hydroxy-2-methyl-benzoylamino)-4-phenyl-butyryl]-pyrrolidine-2-carboxylic acid 2-chloro-benzylamide] | 1290 nM | 1.5 nM | – | –
22 | Cc1ccccc1CNC(=O)[C@@H]1CC(F)(F)CN1C(=O)[C@@H](O)[C@H](Cc1ccccc1)NC(=O)c1ccc(C)c(O)c1C [Example C42, (S)-4,4-Difluoro-1-((2S,3S)-2-hydroxy-3-{[1-(3-hydroxy-2,4-dimethyl-phenyl)-methanoyl]-amino}-4-phenyl-butanoyl)-pyrrolidine-2-carboxylic acid 2-methyl-benzylamide] | 3200 nM | 4 nM | – | –
23 | CC1(C)SCN(C(=O)[C@@H](O)[C@H](Cc2ccccc2)NC(=O)c2cccc3c2CCN3)[C@@H]1C(=O)N[C@H]1CCc2ccccc21 [Example B42, 2,3-Dihydro-1H-indole-4carboxylic acid {(1S,2S)-1-benzyl-2-hydroxy-3-[(R)-4-((S)-indan-1-ylcarbamoyl)-5,5-dimethyl-thiazolidin-3-yl]-3-oxo-propyl}-amide] | 155 nM | 0.13 nM | – | –
24 | CC1(C)SCN(C(=O)[C@@H](O)[C@H](Cc2ccccc2)NC(=O)c2cccc3c2CCN3)[C@@H]1C(=O)N[C@H]1CCOc2ccccc21 [Example B29, 2,3-Dihydro-1H-indole-4-carboxylic acid {(1S,2S)-1-benzyl-3-[(R)-4-((S)-chroman-4-ylcarbamoyl)-5,5-dimethyl-thiazolidin-3-yl]-2-hydroxy-3-oxo-propyl}-amide] | 63 nM | 0.82 nM | – | –
25 | Cc1ccccc1CNC(=O)[C@H]1N(C(=O)[C@@H](O)[C@H](Cc2ccccc2)NC(=O)CSc2nc[nH]n2)CSC1(C)C [Example B4, 3-{2-Hydroxy-4-phenyl-3-[2-(2H-[1,2,4t]triazol-3-ylsufanyl)-ethanoylamino]-butanoyl}5,5-dimethyl-thiazolidine-4-carboxylic acid-2-methyl-benzylamide] | 707 nM | 3 nM | – | –
